Test [1] deals with T1, AA-as7 kinase (Aurora A LI85V, L201G) (Mus musculus, UniProt P97477, L185V/L201G).
T1 construct: the Aurora A mutant is the double mutant Aurora A (AA-as7); 6-His; made in house; host or cells: Sf9 insect cells (baculovirus, Bac-to-Bac)
T1 sequence (P97477 1-395 L185V/L201G): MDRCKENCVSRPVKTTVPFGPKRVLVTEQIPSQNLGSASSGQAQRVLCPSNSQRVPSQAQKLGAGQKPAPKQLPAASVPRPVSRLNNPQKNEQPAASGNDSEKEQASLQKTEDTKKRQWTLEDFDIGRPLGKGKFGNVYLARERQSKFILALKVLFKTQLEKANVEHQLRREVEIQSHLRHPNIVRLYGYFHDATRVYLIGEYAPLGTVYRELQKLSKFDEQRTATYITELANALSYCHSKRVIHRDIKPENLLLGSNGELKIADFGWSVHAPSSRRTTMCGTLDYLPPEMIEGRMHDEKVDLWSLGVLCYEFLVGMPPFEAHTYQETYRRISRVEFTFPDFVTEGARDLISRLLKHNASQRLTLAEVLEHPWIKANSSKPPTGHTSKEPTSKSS
As to the kind of experiment: In vitro kinase assay with AA-as7 and TPX2. Format: biochemical, murine. As to the method: (§1) For in vitro labeling, Aurora A/TPX2 complex (on beads) was pre-incubated with 10 μM cold ATP for 10 min to activate the kinase. The beads were washed twice with kinase buffer, and then subjected to kinase assay with 2-5 μg of recombinant protein (such as PHLDA) and 1 μCi of [γ-^32P] ATP. Reactions were terminated by adding SDS sample buffer, separated by SDS-PAGE gel, transferred to PVDF membrane and exposed to Biomax MS film. Aurora A kinase assays were conducted using 1 μCi of [γ-^32P] ATP and 3 μg of Aurora A substrate peptide in a final volume of 30 μl at 30° C. as reported before (Sun, et al, (2008a) Mol. Biol. Cell 19, 3052-3069).
(§2) IC50 values were determined by fitting the data to a sigmoidal dose response curve using GraphPad Prism 4.0 software. Km and Vmax values were derived from the assay described above using various concentrations of AA peptide substrate and ATP. Km and Vmax values were determined using GraphPad Prism 4.0 software.

In another test the test system is AA-as7-MDA cells. As to the kind of experiment: Western blot of protein levels after 1-NM-PP1, AA-as7-MDA cells. The class given is cell-based. The conditions noted are these: for Aurora A levels: AA-as7-MDA cells treated with inhibitor. As to the method:
Aurora A can regulate its substrates using either its kinase activity or scaffolding function. Therefore, to dissect the mechanism further, AA-MDA and AA-as7-MDA were treated with 1-NM-PP1 for 12 h and PHLDA1 expression analyzed.
AA-MDA and AA-as7 MDA cells were treated with either DMSO or 1-NM-PP1 (250 nM) for 12 h, followed by cell lysis. For MLN8237 experiment, MDA cells were treated with 1 μM MLN8237 for 12 h.
Cells were harvested and lysed in modified RIPA buffer, supplemented with protease inhibitors. Equal amounts of cell extracts were then used to conduct western blot.
Aurora A-mediated phosphorylation of its substrates often promotes their degradation (e.g. p53, PHLDA1) or stabilization (ASAP1). Therefore, we investigated whether Aurora A exerts control over LIMK2 level. Aurora A was transiently depleted in MDA cells using two different shRNAs, causing concomitant decrease in LIMK2 level (FIG. 6A). Wild-type and mutant AA (AA-as7) were stably overexpressed in MDA cells (AA-MDA and AA-as7-MDA cells respectively), leading to considerable increase in LIMK2 levels (FIG. 6B), thereby confirming that Aurora A positively regulates LIMK2 levels. Aurora A can regulate its substrates using either its kinase activity or scaffolding function. Aurora A regulates p53 levels by phosphorylation, but regulates ASAP levels through the scaffolding function. Therefore, to dissect the mechanism by which Aurora A regulates LIMK2, AA-MDA and AA-as7-MDA cells were treated with 1-NM-PP 1 for 12 h and LIMK2 expression analyzed.
For orientation: A western blot detects proteins with antibodies after separation by electrophoresis.

Another test has as its system AA-as7-NIH3T3 cells. The test can be described thus: Soft agar colony formation, AA-as7-NIH3T3 cells. Particulars: 0.5 μM. The class given is cell-based. How it is done: (§3) Briefly equal volumes of nobel agar (1%, DNA grade) and 2×RPMI 1640 (with 20% FBS) were mixed at 40° C. to make 0.5% agar in six-well tissue culture plates (Corning) as a base agar. Cells (0.1 ml of 2.0×10^5/ml) were suspended in 3 mL of 2×RPMI 1640 (with 20% FBS) and 3 ml of 0.7% agar. 1.5 ml of this suspension was added to each well (as 0.35% top agar) with final concentration of 5,000 cells per well. Top agar was covered with 500 μl of culture media. Plates were incubated at 37° C. for 3 to 4 weeks. Fresh media was added every three days.
(§4) For 1-NM-PPI experiments, fresh media containing 1-NM-PP1 (100 nM) or DMSO were added to the cells every 3 days. Colony formation was observed by light phase-contrast microscope and visually after staining with 0.5 ml of 0.01% crystal violet in PBS for 45 min at room temperature. Experiments were repeated in quadruplicate, two independent times to ensure the reproducibility of the results.

The subject of test [2] is wild-type Aurora A-expressing NIH3T3 cells. As to the kind of experiment: Soft agar colony formation, wild-type Aurora A-NIH3T3 cells. The class given is cell-based. The conditions noted are these: 0.5 μM (identical conditions). How it is done:
as §3, §4

Another test addresses T2, wild-type Aurora A (Mus musculus, UniProt P97477).
T2 construct: 6-His; made in house; host or cells: Sf9 insect cells (baculovirus, Bac-to-Bac)
T2 sequence (P97477 1-395): T1 sequence (P97477 1-395 L185V/L201G) with V185L, G201L
T2 sequence (Q9ULW0 1-747 partner): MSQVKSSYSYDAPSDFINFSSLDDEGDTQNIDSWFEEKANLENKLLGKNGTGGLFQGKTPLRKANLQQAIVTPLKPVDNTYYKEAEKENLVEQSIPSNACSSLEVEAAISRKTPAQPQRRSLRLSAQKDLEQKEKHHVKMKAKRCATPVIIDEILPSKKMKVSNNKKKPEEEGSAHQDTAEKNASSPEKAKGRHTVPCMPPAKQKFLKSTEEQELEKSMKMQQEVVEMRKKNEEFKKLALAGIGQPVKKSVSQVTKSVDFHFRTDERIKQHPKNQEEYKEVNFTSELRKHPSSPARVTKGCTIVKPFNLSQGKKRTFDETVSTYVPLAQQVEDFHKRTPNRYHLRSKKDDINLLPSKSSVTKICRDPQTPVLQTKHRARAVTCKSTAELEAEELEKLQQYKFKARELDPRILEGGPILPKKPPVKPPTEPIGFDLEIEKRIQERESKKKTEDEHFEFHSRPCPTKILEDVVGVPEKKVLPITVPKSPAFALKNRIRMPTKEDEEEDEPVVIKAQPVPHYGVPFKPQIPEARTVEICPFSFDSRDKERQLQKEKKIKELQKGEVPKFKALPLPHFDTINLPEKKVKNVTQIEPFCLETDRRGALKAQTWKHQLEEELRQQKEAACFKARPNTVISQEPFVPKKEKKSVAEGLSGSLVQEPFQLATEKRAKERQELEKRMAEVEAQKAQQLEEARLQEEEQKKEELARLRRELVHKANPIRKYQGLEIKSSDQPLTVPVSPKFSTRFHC
The test can be described thus: In vitro kinase assay with wild-type Aurora A and TPX2. The class given is biochemical, murine. The conditions noted are these: even at higher concentrations. How it is done: as §1, §2

For test [3], the target named is Aurora B-as7 (L138V, L154G-AB) kinase (Homo sapiens, UniProt Q96GD4, L138V/L154G). As to the kind of experiment: In vitro kinase assay with AB-as7. The class given is biochemical. The conditions noted are these: phosphodonor as labelled.
Test [4] relates to wt kinases present in the MDA cell lysate. As to the kind of experiment: In vitro kinase reaction with MDA cell lysate and [γ-32P] Phenethyl-ATP. Format: biochemical. The conditions noted are these: cell lysate alone, without AA-as7/TPX2. As to the method:
To prepare a labeled sample for 2D gel electrophoresis, kinase reactions with whole cell lysate or fractionated lysate were carried out as published before (Sun, et al, (2008a) Mol. Biol. Cell 19, 3052-3069). Gel spots were manually excised and automatically processed for peptide mapping experiments using a Micromass MassPREP Station in conjunction with manufacturer specified protocols.
An in vitro kinase reaction was performed using unsynchronized MDA cell lysate, [[γ-^32P] Phenethyl-ATP and Aurora A-as7/TPX2 to identify novel Aurora A substrates. […] Phenethyl ATP is specific for the engineered kinase and is not accepted by wt kinases present in the cell lysate. In contrast, when AA-as7 and TPX2 were added to the cell lysate along with Phenethyl ATP, it phosphorylated several proteins. These proteins are the direct targets of Aurora A. To isolate these targets, proteins were separated using 2D gel electrophoresis, isolated and visualized by autoradiography. Radiolabeled proteins were excised from gel and subsequent to trypsin digestion the peptide cleavage products were identified by tandem mass spectrometry. Several Aurora A substrates were identified including PHLDA1, p53 and vimentin.

The mark [5] stands for this setting: AA-as7, phosphodonor as labelled.

Residue numbers refer to the chain shown, from its start. “Also recorded” adds a separate entry of the source.

Chain of Aurora B-as7 (L138V, L154G-AB) kinase (Q96GD4 whole entry L138V/L154G): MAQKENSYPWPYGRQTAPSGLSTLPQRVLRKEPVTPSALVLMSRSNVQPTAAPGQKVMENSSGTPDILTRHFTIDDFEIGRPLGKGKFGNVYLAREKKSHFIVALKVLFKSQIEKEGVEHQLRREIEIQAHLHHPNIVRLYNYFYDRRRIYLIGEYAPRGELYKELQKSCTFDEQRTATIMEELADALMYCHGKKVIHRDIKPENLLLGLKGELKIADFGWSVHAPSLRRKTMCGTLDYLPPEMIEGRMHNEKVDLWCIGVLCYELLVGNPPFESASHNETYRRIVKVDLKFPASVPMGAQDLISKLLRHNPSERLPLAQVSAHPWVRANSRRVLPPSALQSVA

Turning to `CC(C)(C)n1nc(Cc2cccc3ccccc23)c2c(N)ncnc21` [1-NM-PP1], inhibition in test [1] (AA-as7 kinase) was half-maximal at 1.7 nM (IC50). The LIMK2 level entry with AA-as7-MDA cells (250 nM, 12 h, AA-as7-MDA cells) is “significant decrease; also recorded: reduces LIMK2 levels”. For the same compound, in the test with AA-as7-MDA cells (12 h, AA-as7-MDA cells), the PHLDA1 level result was “increased”. Besides, the results for the “Aurora A levels” value in the test with AA-as7-MDA cells and in the test with AA-as7-MDA cells (listed as 1-NM-PP 1) were “reduces Aurora A levels significantly” and “decreased Aurora A levels; also recorded: lower Aurora A levels”, respectively. For the same compound, the results for the “colony formation in soft agar” value (in the test on AA-as7-NIH3T3 cells; in test [2]) were “completely inhibited colony formation” and “robust colony formation”, respectively. For the same compound, on wild-type Aurora A, the “inhibition of wild-type Aurora A” value is reported as “does not inhibit”.

For the compound `O=P(O)(O)OP(=O)(O)OP(=O)(O)OC[C@H]1O[C@@H](n2cnc3c(NCCc4ccccc4)ncnc32)[C@H](O)[C@@H]1O` [N^6-phenethyl ATP, N^6-(phenethyl) ATP], in test [1] (setting [5]), the Kcat came to 223 s⁻¹, the Km was found to be 11.6 µM and the Vmax is 3.02 × 10^6. In addition, in test [3], the Kcat was 6.2 s⁻¹, the Km was found to be 11.4 µM and the Vmax is listed as 7.44 × 10^4. For the same compound, the “labelling signal in cell lysate” value in test [4] was “no signal”.

What is called IC50 is the midpoint of a concentration-inhibition curve. Low readings indicate greater potency, high ones weaker potency. What is called Km is the concentration of substrate that gives half-maximal velocity.

These data come from patent US20130253037A1, “AURORA A KINASE EFFECTORS” (PURDUE RESEARCH FOUNDATION, priority 2010, published 2013).
